The text below walks through data of US4863904A, “Dipeptides as renin inhibitors” (priority 1984, dated 1989).

For the first assay, the target named is T1, human renin (Homo sapiens, UniProt P00797).
T1 sequence (P00797 67-406): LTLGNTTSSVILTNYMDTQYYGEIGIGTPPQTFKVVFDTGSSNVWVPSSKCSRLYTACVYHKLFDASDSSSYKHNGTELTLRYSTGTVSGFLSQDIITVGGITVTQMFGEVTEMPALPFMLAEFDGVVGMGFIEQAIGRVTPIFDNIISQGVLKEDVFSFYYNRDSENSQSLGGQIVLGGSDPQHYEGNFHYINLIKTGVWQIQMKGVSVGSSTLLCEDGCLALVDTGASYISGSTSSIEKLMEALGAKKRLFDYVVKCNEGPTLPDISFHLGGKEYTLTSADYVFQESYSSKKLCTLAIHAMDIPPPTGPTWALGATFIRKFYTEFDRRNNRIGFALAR
Put plainly: Human renin-sheep renin substrate reaction system in vitro. It is filed as biochemical. The note with it: IC50 (molar concentration), purified human renin, semipurified sheep renin substrate, pH 7.4, 37° C., 15 minutes; angiotensin I by radioimmunoassay. Here is the method:
The mixture was incubated for 15 minutes on a water bath at 37° C., and the reaction mixture was allowed to stand for 5 minutes on a water bath at 100° C. to stop the reaction. After cooling, 200 μl of the solution was taken up and the amount of angiotensin I produced by the addition of renin was determined by radioimmunoassay. The inhibitory effect was calculated by the following equation. [formula]
As a control, the same procedure as above was carried out by using 50 μl of dimethyl sulfoxide alone in place of the 50 μl of dimethyl sulfoxide solution containing a dipeptide of the present invention.
The compound `CC(C)C[C@@H](CO)NC(=O)[C@H](Cc1c[nH]cn1)NC(=O)C(CCCC(=O)c1ccccc1)Cc1cccc2ccccc12` (mixture of isomers) yielded an IC50 of 13 µM.
`CC(C)C[C@@H](CO)NC(=O)[C@H](Cc1c[nH]cn1)NC(=O)C(CCOCCc1ccccc1)Cc1cccc2ccccc12` (mixture of isomers) [N-[(±)-2-(1-Naphthylmethyl)-4-phenethoxybutyryl]-L-histidyl-L-leucinol] had an IC50 of 15 µM.
In turn, `CC(C)C[C@@H](CO)NC(=O)[C@H](Cc1c[nH]cn1)NC(=O)C(CCCCc1ccccc1)Cc1cccc2ccccc12` (mixture of isomers) [N-[(±)-2-(1-Naphthylmethyl)-6-phenylhexanoyl]-L-histidyl-L-leucinol] registered an IC50 of 5.4 µM.

The assay is the same for the next values; noted with them: purified human renin, semipurified sheep renin substrate, pH 7.4, 37° C., 15 minutes; angiotensin I by radioimmunoassay; read-out: IC50 (molar concentration).
Take `CC(C)C[C@@H](CO)NC(=O)[C@H](Cc1c[nH]cn1)NC(=O)C(CCCCc1ccccc1)Oc1cccc2ccccc12` (mixture of isomers) [N-[(±)-2-(1-Naphthoxy)-6-phenylhexanoyl]-L-histidyl-L-leucinol]: the IC50 worked out at 76 µM.
The same measure, in the same setting: the value for `CC(C)C[C@@H](C=O)NC(=O)[C@H](Cc1c[nH]cn1)NC(=O)C(CCOCCc1ccccc1)Cc1cccc2ccccc12` (mixture of isomers) [N-[(±)-2-(1-Naphthylmethyl)-4-phenethoxybutyryl]-L-histidyl-L-leucinal] was 0.075 µM.
The same measure, in the same setting: the value for `CC(C)C[C@@H](CO)NC(=O)[C@H](Cc1c[nH]cn1)NC(=O)C(CCCOc1ccccc1)Cc1cccc2ccccc12` (mixture of isomers) [N-[(±)-2-(1-Naphthylmethyl)-5-phenoxyvaleryl]-L-histidyl-L-leucinol] was 26 µM; that for `CC(C)C[C@@H](C=O)NC(=O)[C@H](Cc1c[nH]cn1)NC(=O)C(CC=Cc1ccccc1)Cc1cccc2ccccc12` (mixture of isomers) [N-[(±)-2-(1-Naphthylmethyl)-5-phenyl-4-pentenoyl]-L-histidyl-L-leucinal] was 0.22 µM; that for `CC(C)C[C@@H](CO)NC(=O)[C@H](Cc1c[nH]cn1)NC(=O)C(CC=Cc1ccccc1)Cc1cccc2ccccc12` (mixture of isomers) [N-[(±)-2-(1-Naphthylmethyl)-5-phenyl-4-pentenoyl]-L-histidyl-L-leucinol] was 2.7 µM.
As to `CC(C)C[C@@H](CO)NC(=O)[C@H](Cc1c[nH]cn1)NC(=O)C(CCCc1ccccc1)Cc1cccc2ccccc12` (mixture of isomers) [N-[(±)-2-(1-Naphthylmethyl)-5-phenylvaleryl]-L-histidyl-L-leucinol], the IC50 amounted to 13 µM.
For the compound `CC(C)C[C@@H](C=O)NC(=O)[C@H](Cc1c[nH]cn1)NC(=O)C(CC=CC=Cc1ccccc1)Cc1cccc2ccccc12` (mixture of isomers) [N-[(±)-2-(1-Naphthylmethyl)-7-phenyl-4,6-heptadienoyl]-L-histidyl-L-leucinal], the IC50 is 0.44 µM.
On the same count and under the same terms, the value for `CC(C)C[C@@H](CO)NC(=O)[C@H](Cc1c[nH]cn1)NC(=O)C(CC=CC=Cc1ccccc1)Cc1cccc2ccccc12` (mixture of isomers) [N-[(±)-2-(1-Naphthylmethyl)-7-phenyl-4,6-heptadienoyl]-L-histidyl-L-leucinol] was 12 µM; that for `CC(C)C[C@@H](C=O)NC(=O)[C@H](Cc1c[nH]cn1)NC(=O)C(Cc1ccccc1)C(=O)NCc1cccc2ccccc12` (mixture of isomers) [N-[(±)-2-(1-Naphthylmethylcarbamoyl)-3-phenylpropionyl]-L-histidyl-L-leucinal] was 8.2 µM; that for `CC(C)C[C@@H](C=O)NC(=O)[C@H](Cc1c[nH]cn1)NC(=O)C(CNC(=O)Cc1cccc2ccccc12)Cc1ccccc1` (mixture of isomers) [N-[(±)-2-Benzyl-3-(1-naphthylacetamido)propionyl]-L-histidyl-L-leucinal] was 7.6 µM.
Still for that read-out and setting: the value for `CC(C)C[C@@H](C=O)NC(=O)[C@H](Cc1c[nH]cn1)NC(=O)C(CC(=O)NCc1cccc2ccccc12)Cc1ccccc1` (mixture of isomers) [N-[(±)-2-Benzyl-3-(1-naphthylmethylcarbamoyl)propionyl]-L-histidyl-L-leucinal] was 7.2 µM; that for `CC(C)C[C@@H](C=O)NC(=O)[C@H](Cc1c[nH]cn1)NC(=O)C(CCCC(=O)c1ccccc1)Cc1cccc2ccccc12` (mixture of isomers) [N-[(±)-5-Benzoyl-2-(1-naphthylmethyl)valeryl]-L-histidyl-L-leucinal] was 0.19 µM; that for `CC(C)C[C@@H](CO)NC(=O)[C@H](Cc1c[nH]cn1)NC(=O)C(CC(=O)NCCc1ccccc1)Cc1cccc2ccccc12` (single isomer, unassigned) [N-[2-(1-Naphthylmethyl)-3-(phenethylcarbamoyl)propionyl]-L-histidyl-L-leucinol] was 25 µM.
Still for that read-out and setting: the value for `CC(C)C[C@@H](CO)NC(=O)[C@H](Cc1c[nH]cn1)NC(=O)C(CC(=O)Nc1ccccc1)Cc1cccc2ccccc12` (single isomer, unassigned) [N-[2-(1-Naphthylmethyl)-3-(phenylcarbamoyl)propionyl]-L-histidyl-L-leucinol(isomer A)] was 65 µM; that for `CC(C)C[C@@H](CO)NC(=O)[C@H](Cc1c[nH]cn1)NC(=O)C(CC(=O)Nc1ccccc1)Cc1cccc2ccccc12` (single isomer, unassigned) [N-[2-(1-Naphthylmethyl)-3-(phenylcarbamoyl)propionyl]-L-histidyl-L-leucinol(isomer B)] was 18 µM.
As for `CC(C)C[C@@H](CO)NC(=O)[C@H](Cc1c[nH]cn1)NC(=O)C(CNCCCc1ccccc1)Cc1cccc2ccccc12` (single isomer, unassigned) [N-[2-(1-naphthylmethyl)-3-(3-phenylpropylamino)propionyl]-L-histidyl-L-leucinol (isomer A)], the IC50 amounted to 47 µM.
For the compound `CC(C)C[C@@H](C=O)NC(=O)[C@H](Cc1c[nH]cn1)NC(=O)C(CC(=O)NCCc1ccccc1)Cc1cccc2ccccc12` (single isomer, unassigned) [N-[2-(1-naphthylmethyl)-3-(phenethylcarbamoyl)propionyl]-L-histidyl-L-leucinal (isomer A)], the IC50 worked out at 0.041 µM.
On the same count and under the same terms, the value for `CC(C)C[C@@H](CO)NC(=O)[C@H](Cc1c[nH]cn1)NC(=O)C(CC(=O)NCCc1ccccc1)Cc1cccc2ccccc12` (single isomer, unassigned) [N-[2-(1-naphthylmethyl)-3-(phenethylcarbamoyl)propionyl]-L-histidyl-L-leucinol (isomer A)] was 7.4 µM; that for `O=C(CC(Cc1cccc2ccccc12)C(=O)N[C@@H](Cc1c[nH]cn1)C(=O)N[C@H](CO)Cc1ccccc1)NCCc1ccccc1` (single isomer, unassigned) [N-[2-(1-naphthylmethyl)-3-(phenethylcarbamoyl)propionyl]-L-histidyl-L-phenylalaninol (isomer A)] was 91 µM; that for `CC(C)C[C@@H](C=O)NC(=O)[C@H](Cc1c[nH]cn1)NC(=O)C(CC(=O)NCc1ccccc1)Cc1cccc2ccccc12` (single isomer, unassigned) [N-[3-(Benzylcarbamoyl)-2-(1-naphthylmethyl)propionyl]-L-histidyl-L-leucinal(isomer A)] was 0.07 µM.
Still for that read-out and setting: the value for `CC(C)C[C@@H](C=O)NC(=O)[C@H](Cc1c[nH]cn1)NC(=O)C(CC(=O)NCc1ccccc1)Cc1cccc2ccccc12` (single isomer, unassigned) [N-[3-(Benzylcarbamoyl)-2-(1-naphthylmethyl)propionyl]-L-histidyl-L-leucinal(isomer B)] was 4.9 µM.
